Measured values from the supplement of paper PMC10307832.

Tests used:
Assay in all cases: relative viability (nuclei count vs DMSO), 5 days (fraction); higher = more cells survive
NCI-H1666 = system: NCI-H1666
Procedure, shortened: (§1)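 Relative viability equals treated-well nuclei counts divided by vehicle-well nuclei counts. Counts came from 4× images of lung cancer cell lines grown in 1536-well plates for 5 days after pin-tool dosing on the day after seeding. Dosing used one drug alone or a fixed anchor-drug dose plus five library-drug doses (not always all listed) in √10 steps, and values are medians of duplicate plates.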

NCI-H1734 = system: NCI-H1734
Procedure, shortened: as §1

SW 900 = system: SW 900
Procedure, shortened: as §1

LOU-NH91 = system: LOU-NH91
Procedure, shortened: as §1

NCI-H1944 = system: NCI-H1944
Procedure, shortened: as §1

NCI-H23 = system: NCI-H23
Procedure, shortened: as §1

NCI-H1755 = system: NCI-H1755
Procedure, shortened: as §1

NCI-H1792 = system: NCI-H1792
Procedure, shortened: as §1

EKVX = system: EKVX
Procedure, shortened: as §1

HCC-366 = system: HCC-366
Procedure, shortened: as §1

PC-3 [JPC-3] = system: PC-3 [JPC-3]
Procedure, shortened: as §1

LK-2 = system: LK-2
Procedure, shortened: as §1

NCI-H596 = system: NCI-H596
Procedure, shortened: as §1

NCI-H1975 = system: NCI-H1975
Procedure, shortened: as §1

EMC-BAC-2 = system: EMC-BAC-2
Procedure, shortened: as §1

NCI-H441 = system: NCI-H441
Procedure, shortened: as §1

NCI-H2170 = system: NCI-H2170
Procedure, shortened: as §1

H3255 = system: H3255
Procedure, shortened: as §1

ChaGo-K-1 = system: ChaGo-K-1
Procedure, shortened: as §1

A-427 = system: A-427
Procedure, shortened: as §1

SK-MES-1 = system: SK-MES-1
Procedure, shortened: as §1

NCI-H520 = system: NCI-H520
Procedure, shortened: as §1

COR-L 105 = system: COR-L 105
Procedure, shortened: as §1

## C[C@@H]1CN(CC(=O)Nc2ccc3c(c2)Cc2cccc(-c4cc(=O)cc(N5CCOCC5)o4)c2S3)C[C@H](C)O1 + NC(=O)Nc1cc(-c2cccc(F)c2)sc1C(=O)N[C@H]1CCCNC1 [AZD7762] (partner 0.2 µM)
NCI-H1666; first compound 0.04 µM
  relative viability: 0.891
NCI-H1666; first compound 0.1265 µM
  relative viability: 0.891
NCI-H1666; first compound 0.4 µM
  relative viability: 0.941
NCI-H1666; first compound 4 µM
  relative viability: 0.765
NCI-H1734; first compound 0.04 µM
  relative viability: 0.569
NCI-H1734; first compound 0.1265 µM
  relative viability: 0.684
NCI-H1734; first compound 0.4 µM
  relative viability: 0.643
NCI-H1734; first compound 4 µM
  relative viability: 0.634
SW 900; first compound 0.04 µM
  relative viability: 0.629
SW 900; first compound 0.1265 µM
  relative viability: 0.669
SW 900; first compound 0.4 µM
  relative viability: 0.506
SW 900; first compound 4 µM
  relative viability: 0.281
LOU-NH91; first compound 0.04 µM
  relative viability: 0.639
LOU-NH91; first compound 0.1265 µM
  relative viability: 0.775
LOU-NH91; first compound 0.4 µM
  relative viability: 0.65
LOU-NH91; first compound 4 µM
  relative viability: 0.706
NCI-H1944; first compound 0.1265 µM
  relative viability: 0.561
NCI-H1944; first compound 0.4 µM
  relative viability: 0.605
NCI-H1944; first compound 4 µM
  relative viability: 0.396
NCI-H23; first compound 0.04 µM
  relative viability: 0.238
NCI-H23; first compound 0.1265 µM
  relative viability: 0.22
NCI-H23; first compound 0.4 µM
  relative viability: 0.226
NCI-H23; first compound 4 µM
  relative viability: 0.18
NCI-H1755; first compound 0.04 µM
  relative viability: 0.422
NCI-H1755; first compound 0.1265 µM
  relative viability: 0.44
NCI-H1755; first compound 0.4 µM
  relative viability: 0.494
NCI-H1755; first compound 4 µM
  relative viability: 0.445
NCI-H1792; first compound 0.04 µM
  relative viability: 0.662
NCI-H1792; first compound 0.1265 µM
  relative viability: 0.638
NCI-H1792; first compound 0.4 µM
  relative viability: 0.564
NCI-H1792; first compound 4 µM
  relative viability: 0.314
EKVX; first compound 0.04 µM
  relative viability: 0.651
EKVX; first compound 0.1265 µM
  relative viability: 0.751
EKVX; first compound 0.4 µM
  relative viability: 0.713
EKVX; first compound 4 µM
  relative viability: 0.562
HCC-366; first compound 0.04 µM
  relative viability: 0.247
HCC-366; first compound 0.1265 µM
  relative viability: 0.253
HCC-366; first compound 0.4 µM
  relative viability: 0.163
HCC-366; first compound 4 µM
  relative viability: 0.184
PC-3 [JPC-3]; first compound 0.04 µM
  relative viability: 0.777
PC-3 [JPC-3]; first compound 0.1265 µM
  relative viability: 0.739
PC-3 [JPC-3]; first compound 0.4 µM
  relative viability: 0.796
PC-3 [JPC-3]; first compound 4 µM
  relative viability: 0.669
LK-2; first compound 0.04 µM
  relative viability: 0.331
LK-2; first compound 0.1265 µM
  relative viability: 0.363
LK-2; first compound 0.4 µM
  relative viability: 0.293
LK-2; first compound 4 µM
  relative viability: 0.432
NCI-H596; first compound 0.04 µM
  relative viability: 1.12
NCI-H596; first compound 0.1265 µM
  relative viability: 1.1
NCI-H596; first compound 0.4 µM
  relative viability: 1.1
NCI-H596; first compound 4 µM
  relative viability: 1.06
NCI-H1975; first compound 0.04 µM
  relative viability: 0.729
NCI-H1975; first compound 0.1265 µM
  relative viability: 0.608
NCI-H1975; first compound 0.4 µM
  relative viability: 0.624
NCI-H1975; first compound 4 µM
  relative viability: 0.585
EMC-BAC-2; first compound 0.04 µM
  relative viability: 1.1
EMC-BAC-2; first compound 0.1265 µM
  relative viability: 1.15
EMC-BAC-2; first compound 0.4 µM
  relative viability: 1.08
EMC-BAC-2; first compound 4 µM
  relative viability: 1.24
NCI-H441; first compound 0.04 µM
  relative viability: 1.28
NCI-H441; first compound 0.1265 µM
  relative viability: 1.16
NCI-H441; first compound 0.4 µM
  relative viability: 1.02
NCI-H441; first compound 4 µM
  relative viability: 1.01
NCI-H2170; first compound 0.04 µM
  relative viability: 0.95
NCI-H2170; first compound 0.1265 µM
  relative viability: 0.807
NCI-H2170; first compound 0.4 µM
  relative viability: 0.812
NCI-H2170; first compound 4 µM
  relative viability: 0.633
H3255; first compound 0.04 µM
  relative viability: 0.792
H3255; first compound 0.1265 µM
  relative viability: 0.765
H3255; first compound 0.4 µM
  relative viability: 0.943
H3255; first compound 4 µM
  relative viability: 0.725
ChaGo-K-1; first compound 0.04 µM
  relative viability: 0.836
ChaGo-K-1; first compound 0.1265 µM
  relative viability: 0.855
ChaGo-K-1; first compound 0.4 µM
  relative viability: 0.847
ChaGo-K-1; first compound 4 µM
  relative viability: 0.799
A-427; first compound 0.04 µM
  relative viability: 0.855
A-427; first compound 0.1265 µM
  relative viability: 0.831
A-427; first compound 0.4 µM
  relative viability: 0.73
A-427; first compound 4 µM
  relative viability: 0.635

## CC(C)Oc1cc(Nc2nc(N[C@@H](C)c3ccc(F)cn3)ncc2Cl)n[nH]1 [AZ23] + CC(=O)c1c(C)c2cnc(Nc3ccc(N4CCNCC4)cn3)nc2n(C2CCCC2)c1=O [Palbociclib] (partner 0.5 µM)
NCI-H1666; first compound 0.01 µM
  relative viability: 0.673
NCI-H1666; first compound 0.03162 µM
  relative viability: 0.647
NCI-H1666; first compound 0.3162 µM
  relative viability: 0.652
NCI-H1734; first compound 0.01 µM
  relative viability: 0.317
NCI-H1734; first compound 0.03162 µM
  relative viability: 0.366
NCI-H1734; first compound 0.3162 µM
  relative viability: 0.359
SW 900; first compound 0.01 µM
  relative viability: 0.653
SW 900; first compound 0.3162 µM
  relative viability: 0.501
LOU-NH91; first compound 0.01 µM
  relative viability: 0.574
LOU-NH91; first compound 0.03162 µM
  relative viability: 0.544
LOU-NH91; first compound 0.3162 µM
  relative viability: 0.546
NCI-H1944; first compound 0.01 µM
  relative viability: 0.304
NCI-H1944; first compound 0.03162 µM
  relative viability: 0.342
NCI-H1944; first compound 0.3162 µM
  relative viability: 0.278
SK-MES-1; first compound 0.03162 µM
  relative viability: 0.291
SK-MES-1; first compound 0.3162 µM
  relative viability: 0.328
NCI-H23; first compound 0.03162 µM
  relative viability: 0.548
NCI-H23; first compound 0.3162 µM
  relative viability: 0.512
NCI-H1755; first compound 0.01 µM
  relative viability: 0.472
NCI-H1755; first compound 0.03162 µM
  relative viability: 0.488
NCI-H1755; first compound 0.3162 µM
  relative viability: 0.49
NCI-H1792; first compound 0.01 µM
  relative viability: 0.737
NCI-H1792; first compound 0.03162 µM
  relative viability: 0.617
NCI-H1792; first compound 0.3162 µM
  relative viability: 0.645
EKVX; first compound 0.01 µM
  relative viability: 0.392
EKVX; first compound 0.03162 µM
  relative viability: 0.414
EKVX; first compound 0.3162 µM
  relative viability: 0.358
HCC-366; first compound 0.01 µM
  relative viability: 0.303
HCC-366; first compound 0.03162 µM
  relative viability: 0.513
HCC-366; first compound 0.3162 µM
  relative viability: 0.458
PC-3 [JPC-3]; first compound 0.01 µM
  relative viability: 0.552
PC-3 [JPC-3]; first compound 0.03162 µM
  relative viability: 0.611
PC-3 [JPC-3]; first compound 0.3162 µM
  relative viability: 0.536
LK-2; first compound 0.03162 µM
  relative viability: 0.544
LK-2; first compound 0.3162 µM
  relative viability: 0.678
NCI-H1975; first compound 0.01 µM
  relative viability: 0.534
NCI-H1975; first compound 0.03162 µM
  relative viability: 0.703
NCI-H1975; first compound 0.3162 µM
  relative viability: 0.591
EMC-BAC-2; first compound 0.01 µM
  relative viability: 0.527
EMC-BAC-2; first compound 0.03162 µM
  relative viability: 0.523
EMC-BAC-2; first compound 0.3162 µM
  relative viability: 0.52
NCI-H520; first compound 0.01 µM
  relative viability: 0.236
NCI-H520; first compound 0.03162 µM
  relative viability: 0.193
NCI-H520; first compound 0.3162 µM
  relative viability: 0.177
NCI-H441; first compound 0.01 µM
  relative viability: 0.199
NCI-H441; first compound 0.03162 µM
  relative viability: 0.198
NCI-H441; first compound 0.3162 µM
  relative viability: 0.202
NCI-H2170; first compound 0.01 µM
  relative viability: 0.451
NCI-H2170; first compound 0.03162 µM
  relative viability: 0.645
NCI-H2170; first compound 0.3162 µM
  relative viability: 0.473
H3255; first compound 0.01 µM
  relative viability: 0.31
H3255; first compound 0.03162 µM
  relative viability: 0.318
H3255; first compound 0.3162 µM
  relative viability: 0.295
ChaGo-K-1; first compound 0.01 µM
  relative viability: 1.12
ChaGo-K-1; first compound 0.03162 µM
  relative viability: 0.97
ChaGo-K-1; first compound 0.3162 µM
  relative viability: 1
A-427; first compound 0.01 µM
  relative viability: 0.459
A-427; first compound 0.03162 µM
  relative viability: 0.524
A-427; first compound 0.3162 µM
  relative viability: 0.586
COR-L 105; first compound 0.01 µM
  relative viability: 0.53
COR-L 105; first compound 0.03162 µM
  relative viability: 0.463
COR-L 105; first compound 0.3162 µM
  relative viability: 0.396
